According to PubChem BioAssay (NCI):
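Cells were grown in 96-well plates and exposed to each compound for 48 hours at five concentrations; endpoints were interpolated linearly between bracketing concentrations, or set to the highest concentration if not reached. GI50 = concentration required for 50% inhibition of growth. Definition used: TGI = concentration required for complete inhibition of growth.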

Tests used:
Test in all cases: inhibition of tumour cell growth, NCI panel, 48 h
[1] = test system: SW-620 colon
[2] = test system: HCC-2998 colon
[3] = test system: SF-268 CNS
[4] = test system: COLO 205 colon
[5] = test system: SF-295 CNS
[6] = test system: NCI-H23 lung
[7] = test system: HT29 colon
[8] = test system: SK-MEL-28 melanoma

SMILES	GI50 [1] [µM]	TGI [1] [µM]	GI50 [2] [µM]	TGI [2] [µM]	GI50 [3] [µM]	TGI [3] [µM]	GI50 [4] [µM]	TGI [4] [µM]	GI50 [5] [µM]	TGI [5] [µM]	GI50 [6] [µM]	TGI [6] [µM]	GI50 [7] [µM]	TGI [7] [µM]	GI50 [8] [µM]	TGI [8] [µM]
COc1ccc2c(c1)CCCN2c1c2ccccc2nc2ccccc12	0.403	> 100	0.311	1.04	0.933	> 100	0.269	0.849	0.281	> 100	0.356	5.48	0.36	> 100	0.878	> 100
O=C(O)CCSC(=O)Nc1ccc([N+](=O)[O-])cc1	–	> 100	–	> 100	–	> 100	–	> 100	–	> 100	–	> 100	–	> 100	–	> 100
COc1ccc(NC(=O)CC(=O)N/N=C/c2ccc(N(CCC#N)S(C)(=O)=O)cc2)cc1	–	> 100	–	> 100	–	> 100	–	> 100	–	> 100	–	> 100	–	> 100	–	> 100
CCOC(=S)SSSC(=S)OCC	–	> 100	–	> 100	–	> 100	–	> 100	–	> 100	–	> 100	–	> 100	–	> 100
COc1cc(Nc2nc3ccccc3nc2-c2cccs2)cc(OC)c1OC	–	> 100	–	> 100	–	> 100	–	> 10	–	> 100	–	> 100	–	> 100	–	> 100
COc1ccc(-c2onc(N)c2-c2cc(OC)c3c(c2)OCO3)cc1	0.598	> 100	3.7	> 87.7	8.58	> 100	2.2	6.86	2.32	> 100	2.87	> 100	1.65	11.9	3.84	> 100
O=C(Nc1ccncc1)C(=O)c1cn(S(=O)(=O)c2cccc(F)c2)c2ccccc12	3.02	> 100	2.2	89.3	10.9	> 100	32.4	> 100	2.84	27.5	2.43	> 100	1.77	14.9	4.74	60.5
O=[N+]([O-])c1ccc(C=NC2CCCCC2)cc1	–	> 100	–	> 100	–	> 100	–	> 100	–	> 100	–	> 100	–	> 100	–	> 100
O=C(O)/C=C(\c1nc2ccc([N+](=O)[O-])cc2[nH]1)c1cc(Cl)ccc1O	3.66	17.6	4.13	29.4	3.62	28.3	2.87	11.2	3.43	20.1	1.96	19.6	3.51	14.4	2.66	14.4
